Experiments:
[1] = Caco-2 permeability assay (CacoReady kit); format: in vitro ADME; conditions: human, Caco-2, Caco-2 barrier, CacoReady kit; above 1×10^−6 cm/s classified as permeable
How it was run: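 Apparent permeability coefficients (Papp) were measured across Caco-2 cell barriers using a ready-to-use kit run per the supplier's protocol. Values serve as a predictor of oral/intestinal bioavailability.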

[2] = logD by shake flask method (octanol / PBS pH 7.4, HPLC); format: physicochemical; conditions: octanol / PBS pH 7.4, shake flask
How it was run: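 Shake-flask partition of compound between octanol and phosphate-buffered saline at pH 7.4, with each phase quantified by HPLC to give LogD.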

[3] = target: T1, recombinant human transglutaminase 2 (Homo sapiens, UniProt P21980); test: Transglutaminase assay (DCC-assay): incorporation of dansylcadaverine into dimethylcasein; format: biochemical; conditions: recombinant human TG2 10 nM; dansylcadaverine incorporation into dimethylcasein; read-out: IC50 TG2
T1 construct: purchased Zedira T022
T1 sequence (P21980 1-687): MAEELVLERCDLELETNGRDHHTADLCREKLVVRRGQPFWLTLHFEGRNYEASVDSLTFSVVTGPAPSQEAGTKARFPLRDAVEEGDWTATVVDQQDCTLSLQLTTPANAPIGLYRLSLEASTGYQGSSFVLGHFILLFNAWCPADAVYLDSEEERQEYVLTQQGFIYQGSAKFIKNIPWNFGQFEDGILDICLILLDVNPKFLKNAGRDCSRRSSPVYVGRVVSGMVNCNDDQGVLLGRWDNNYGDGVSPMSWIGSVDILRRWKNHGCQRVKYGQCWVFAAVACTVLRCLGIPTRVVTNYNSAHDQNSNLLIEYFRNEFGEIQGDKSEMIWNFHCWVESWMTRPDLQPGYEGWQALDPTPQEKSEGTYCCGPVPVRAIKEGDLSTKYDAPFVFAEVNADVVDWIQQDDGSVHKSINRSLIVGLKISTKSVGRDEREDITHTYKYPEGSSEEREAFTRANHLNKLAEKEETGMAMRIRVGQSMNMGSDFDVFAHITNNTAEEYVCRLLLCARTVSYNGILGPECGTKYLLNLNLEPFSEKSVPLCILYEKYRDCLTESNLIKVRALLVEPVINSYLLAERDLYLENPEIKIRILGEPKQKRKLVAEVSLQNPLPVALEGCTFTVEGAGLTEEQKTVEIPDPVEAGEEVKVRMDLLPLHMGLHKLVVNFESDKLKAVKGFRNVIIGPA
How it was run: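 Recombinant human TG2 (10 nM final) incorporates dansylcadaverine into N,N-dimethylcasein. Reaction mix: 50 mM Tris-HCl, 10 mM CaCl2, 10 mM glutathione, 2.5% glycerol, 16.7 µM dansylcadaverine, 4 µM dimethylcasein, 200 mM NaCl, pH 8.0. Fluorescence (ex 330/em 500 nm) was followed 30 min at 37 °C; the 20–30 min slope, expressed as % of 2% DMSO control, gave IC50.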

SMILES: CNC(=O)C(=O)CC[C@H](NC(=O)C1CCc2ccccc2C1)C(=O)Nc1cccn(CC(=O)NC2C3CC4CC2CC(C(=O)N(C)C)(C4)C3)c1=O (stereo partly drawn) [II-174, (2S)-N1-(1-(2-(4-aminoadamantane-N,N-dimethyl-1-carboxamide)-2-oxoethyl)-2-oxo-1,2-dihydropyridin-3-yl)-N6-methyl-5-oxo-2-(1,2,3,4-tetrahydronaphthalene-2-carboxamido)hexanediamide]
- Papp [1]: < 1 ×10⁻⁶ cm/s
- logD [2]: < 1
- IC50 [3]: 40 to 400 nM

SMILES: CNC(=O)C(=O)CC[C@H](NC(=O)c1oc2ccccc2c1C)C(=O)Nc1cccn(CC(=O)NC2C3CC4CC2CC(Cl)(C4)C3)c1=O (stereo partly drawn) [II-70, (S)-N1-(1-(2-(5-chloroadamantane-2-amino)-2-oxoethyl)-2-oxo-1,2-dihydropyridin-3-yl)-N6-methyl-2-(3-methylbenzofuran-2-carboxamido)-5-oxohexanediamide]
- Papp [1]: 1 to 10 ×10⁻⁶ cm/s
- logD [2]: 1 to 3
- IC50 [3]: < 40 nM

SMILES: CNC(=O)C(=O)CC[C@H](NC(=O)c1oc2ccccc2c1C)C(=O)Nc1cccn(CC(=O)NC23CC(C2)C3)c1=O [II-167, (S)-N1-(1-(2-(bicyclo[1.1.1]pentan-1-ylamino)-2-oxoethyl)-2-oxo-1,2-dihydropyridin-3-yl)-N6-methyl-2-(3-methylbenzofuran-2-carboxamido)-5-oxohexanediamide]
- Papp [1]: 1 to 10 ×10⁻⁶ cm/s
- logD [2]: < 1
- IC50 [3]: < 40 nM

SMILES: CNC(=O)C(=O)CC[C@H](NC(=O)c1ccnn1C)C(=O)Nc1cccn(CC(=O)NC2C3CC4CC(C3)CC2C4)c1=O (stereo partly drawn) [II-140, (S)-N1-(1-(2-(2-adamantylamino)-2-oxoethyl)-2-oxo-1,2-dihydropyridin-3-yl)-N6-methyl-2-(1-methyl-1H-pyrazole-5-carboxamido)-5-oxohexanediamide]
- Papp [1]: < 1 ×10⁻⁶ cm/s
- logD [2]: < 1
- IC50 [3]: 40 to 400 nM

SMILES: CNC(=O)C(=O)CC[C@H](NC(=O)[C@@H]1CCCCN1)C(=O)Nc1cccn(CC(=O)NC2C3CC4CC(C3)CC2C4)c1=O (stereo partly drawn) [II-58, (S)-N1-(1-(2-(2-adamantylamino)-2-oxoethyl)-2-oxo-1,2-dihydropyridin-3-yl)-N6-methyl-5-oxo-2-((S)-piperidine-2-carboxamido)hexanediamide]
- Papp [1]: < 1 ×10⁻⁶ cm/s
- logD [2]: 1 to 3
- IC50 [3]: 40 to 400 nM

SMILES: CNC(=O)C(=O)CC[C@H](NC(=O)c1csc(Cl)c1)C(=O)Nc1cccn(CC(=O)NC2C3CC4CC(C3)CC2C4)c1=O (stereo partly drawn) [II-27, (S)-2-(5-chlorothiophene-3-carboxamido)-N1-(1-(2-(2-adamantylamino)-2-oxoethyl)-2-oxo-1,2-dihydropyridin-3-yl)-N6-methyl-5-oxohexanediamide]
- Papp [1]: 1 to 10 ×10⁻⁶ cm/s
- logD [2]: 1 to 3
- IC50 [3]: 40 to 400 nM

SMILES: CNC(=O)C(=O)CC[C@H](NC(=O)c1oc2ccccc2c1C)C(=O)Nc1cccn(CC23CC4CC(CC(C4)C2)C3)c1=O [II-107, (S)-N1-(1-(1-adamantylmethyl)-2-oxo-1,2-dihydropyridin-3-yl)-N6-methyl-2-(3-methylbenzofuran-2-carboxamido)-5-oxohexanediamide]
- Papp [1]: 1 to 10 ×10⁻⁶ cm/s
- logD [2]: 3 to 5
- IC50 [3]: 40 to 400 nM

SMILES: CNC(=O)C(=O)CC[C@H](NC(=O)c1oc2ccccc2c1C)C(=O)Nc1cccn(CC(=O)NC2C3CC4CC2CC(C)(C4)C3)c1=O (stereo partly drawn) [II-72, (S)-N1-(1-(2-(5-methyladamantane-2-amino)-2-oxoethyl)-2-oxo-1,2-dihydropyridin-3-yl)-N6-methyl-2-(3-methylbenzofuran-2-carboxamido)-5-oxohexanediamide]
- Papp [1]: < 1 ×10⁻⁶ cm/s
- logD [2]: 3 to 5
- IC50 [3]: < 40 nM

SMILES: CNC(=O)C(=O)CC[C@H](NC(=O)c1sc(C(F)(F)F)nc1C)C(=O)Nc1cccn(CC(=O)N[C@H]2C[C@H]3CC[C@]2(C)C3(C)C)c1=O [II-159, (S)-N1-methyl-5-(4-methyl-2-(trifluoromethyl)thiazole-5-carboxamido)-2-oxo-N6-(2-oxo-1-(2-oxo-2-((1R,2S,4R)-1,7,7-trimethylbicyclo[2.2.1]heptan-2-ylamino)ethyl)-1,2-dihydropyridin-3-yl)hexanediamide]
- Papp [1]: 1 to 10 ×10⁻⁶ cm/s
- logD [2]: 1 to 3
- IC50 [3]: 40 to 400 nM

SMILES: CNC(=O)C(=O)CC[C@H](NC(=O)c1scc(C)c1Cl)C(=O)Nc1cccn(CC(=O)NC2C3CC4CC(C3)CC2C4)c1=O (stereo partly drawn) [II-43, (S)-2-(3-chloro-4-methylthiophene-2-carboxamido)-N1-(1-(2-(2-adamantylamino)-2-oxoethyl)-2-oxo-1,2-dihydropyridin-3-yl)-N6-methyl-5-oxohexanediamide]
- Papp [1]: 1 to 10 ×10⁻⁶ cm/s
- logD [2]: 1 to 3
- IC50 [3]: 400 to 2500 nM

SMILES: CNC(=O)C(=O)CC[C@H](NC(=O)c1nccc2cnccc12)C(=O)Nc1cccn(CC(=O)NC23CCC(C2)C3)c1=O [II-188, (S)-N1-(1-(2-(bicyclo[2.1.1]hexan-1-ylamino)-2-oxoethyl)-2-oxo-1,2-dihydropyridin-3-yl)-N6-methyl-2-(2,6-naphthyridine-1-carboxamido)-5-oxohexanediamide]
- Papp [1]: < 1 ×10⁻⁶ cm/s
- logD [2]: < 1
- IC50 [3]: 400 to 2500 nM

SMILES: CNC(=O)C(=O)CC[C@H](NC(=O)c1nc(Br)sc1C)C(=O)Nc1cccn(CC(=O)NC2C3CC4CC(C3)CC2C4)c1=O (stereo partly drawn) [II-34, (S)-2-(2-bromo-5-methylthiazole-4-carboxamido)-N1-(1-(2-(2-adamantylamino)-2-oxoethyl)-2-oxo-1,2-dihydropyridin-3-yl)-N6-methyl-5-oxohexanediamide]
- Papp [1]: > 10 ×10⁻⁶ cm/s
- logD [2]: 1 to 3
- IC50 [3]: 40 to 400 nM

SMILES: CNC(=O)C(=O)CC[C@H](NC(=O)c1oc2ccccc2c1C)C(=O)Nc1cccn(CC(=O)N[C@H]2C[C@H]3CC[C@@]2(C)C3(C)C)c1=O [II-92, (S)-N1-methyl-5-(3-methylbenzofuran-2-carboxamido)-2-oxo-N6-(2-oxo-1-(2-oxo-2-((1S,2S,4R)-1,7,7-trimethylbicyclo[2.2.1]heptan-2-ylamino)ethyl)-1,2-dihydropyridin-3-yl)hexanediamide]
- Papp [1]: 1 to 10 ×10⁻⁶ cm/s
- logD [2]: 3 to 5
- IC50 [3]: 40 to 400 nM

SMILES: CNC(=O)C(=O)CC[C@H](NC(=O)c1ccnn1C)C(=O)Nc1cccn(CC(=O)N[C@H]2C[C@H]3CC[C@]2(C)C3(C)C)c1=O [II-163, (S)-N1-methyl-5-(1-methyl-1H-pyrazole-5-carboxamido)-2-oxo-N6-(2-oxo-1-(2-oxo-2-((1R,2S,4R)-1,7,7-trimethylbicyclo[2.2.1]heptan-2-ylamino)ethyl)-1,2-dihydropyridin-3-yl)hexanediamide]
- Papp [1]: < 1 ×10⁻⁶ cm/s
- logD [2]: < 1
- IC50 [3]: 40 to 400 nM

SMILES: CNC(=O)C(=O)CC[C@H](NC(=O)c1sc(C(F)(F)F)nc1Br)C(=O)Nc1cccn(CC(=O)NC2C3CC4CC(C3)CC2C4)c1=O (stereo partly drawn) [II-16, (S)-2-(4-bromo-2-(trifluoromethyl)thiazole-5-carboxamido)-N1-(1-(2-(2-adamantylamino)-2-oxoethyl)-2-oxo-1,2-dihydropyridin-3-yl)-N6-methyl-5-oxohexanediamide]
- Papp [1]: 1 to 10 ×10⁻⁶ cm/s
- logD [2]: 1 to 3
- IC50 [3]: < 40 nM

SMILES: CNC(=O)C(=O)CC[C@H](NC(=O)c1scc(Br)c1C)C(=O)Nc1cccn(CC(=O)NC2C3CC4CC(C3)CC2C4)c1=O (stereo partly drawn) [II-41, (S)-2-(4-bromo-3-methylthiophene-2-carboxamido)-N1-(1-(2-(2-adamantylamino)-2-oxoethyl)-2-oxo-1,2-dihydropyridin-3-yl)-N6-methyl-5-oxohexanediamide]
- Papp [1]: 1 to 10 ×10⁻⁶ cm/s
- logD [2]: 3 to 5
- IC50 [3]: 40 to 400 nM

SMILES: Cc1c(C(=O)N[C@@H](CCC(=O)C(N)=O)C(=O)Nc2cccn(CC(=O)N[C@@H]3C[C@@H]4CC[C@H]3C4)c2=O)oc2ccccc12 [II-149, (S)-N1-(1-(2-((1S,2R,4R)-bicyclo[2.2.1]heptan-2-ylamino)-2-oxoethyl)-2-oxo-1,2-dihydropyridin-3-yl)-2-(3-methylbenzofuran-2-carboxamido)-5-oxohexanediamide]
- Papp [1]: 1 to 10 ×10⁻⁶ cm/s
- logD [2]: < 1
- IC50 [3]: < 40 nM

SMILES: CNC(=O)C(=O)CC[C@H](NC(=O)c1cnccn1)C(=O)Nc1cccn(CC(=O)NC2C3CC4CC(C3)CC2C4)c1=O (stereo partly drawn) [II-53, (S)-N1-(1-(2-(2-adamantylamino)-2-oxoethyl)-2-oxo-1,2-dihydropyridin-3-yl)-N6-methyl-5-oxo-2-(pyrazine-2-carboxamido)hexanediamide]
- Papp [1]: < 1 ×10⁻⁶ cm/s
- logD [2]: 1 to 3
- IC50 [3]: 40 to 400 nM

— US20240383856A1 (Zedira GmbH, priority 2021, published 2024)
